Source: patent publication US20150274639A1, “METHODS OF USE FOR COMPOSITIONS COMPRISING A BIOCIDAL POLYAMINE” (Curza Global, LLC, priority 2013, published 2015)
≈ marks a conversion by molar mass, not a printed value.

How the values were obtained:
biofilm formation = conditions: Kolodkin-Gal et al., Cell 149 (2012), cited from earlier work
P. aeruginosa = assay: MIC in CAMHB, 96-well plate (10^5 to 10^2 CFU/mL in 24 hours); type: cell-based; conditions: Pseudomonas aeruginosa, Table 5, class symbols
Procedure: (§1) To determine the MIC of polyamine compounds, the protocol described herein was used.
(§2) In brief, a 0.5 McFarland of each bacterial isolate was made. A 0.5 McFarland is a measure of turbidity in a liquid sample that contains approximately 1×10̂^8 CFU/mL. The 0.5 McFarland standard was diluted in cation adjusted Mueller Hinton Broth (CAMHB), and […], of broth were added to a well of a 96-well plate. In addition, 50 μL of CAMHB that contained a desired concentration of antimicrobial were also added to the well for a final volume of 100 and a final concentration of approximately 5×10^4 CFU/well (which equated to approximately 5×10^5 CFU/mL). Each well contained a desired amount of polyamine compound in order to experimentally determine the MIC. Each 96-well plate was incubated at 37° C. for 24 hours. The contents of each well were plated on tryptic soy agar (TSA). TSA plates were incubated for 37° C. for 24 hours after which the number of CFU were counted and used to calculate the CFU/mL that remained after exposure to varying concentrations of compound. This procedure was repeated n=8 times for each concentration of antimicrobial.

MRSA [1] = assay: as above; type: cell-based, methicillin-resistant Staphylococcus aureus; conditions: Staphylococcus aureus, MRSA, Table 5, class symbols
Procedure: as §1
as §2, with “antimicrobial. […]” for “antimicrobial.”

[2] = tested on: biofilms of MRSA and P. aeruginosa; conditions: understanding of the inventors, no own test described; cited from earlier work
MRSA [3] = assay: MIC against MRSA as defined by CLSI (FIG. 25 series); type: cell-based, methicillin-resistant Staphylococcus aureus; conditions: Staphylococcus aureus
Procedure: To determine the MIC of the polyamine chains alone and the synthesized compounds against MRSA and P. aeruginosa ATCC 27853, a modified protocol from the Clinical and Laboratory Standards Institute (CLSI) guideline M26-A was used. […] All data was collected using cation adjusted MHB for standardization.
As mentioned, MRSA and P. aeruginosa ATCC 27853 were grown on Columbia blood agar plates prior to experimentation. From the blood agar plates, a 0.5 McFarland standard was made of each isolate. This equated to approximately 5×10^7 cells/mL for the MRSA isolate and approximately 3×10^7 cells/mL for the P. aeruginosa ATCC 27853 isolate. Of the 0.5 McFarland stock solution, 50 μL were added to MHB. […] All tests were performed such that a final volume of 5 mL of MHB were obtained. This provided a final bacterial concentration of approximately 5×10^5 cells/mL.
Each sample was incubated in glass test tubes at 37° C. for 24 hours, then plated in duplicate on tryptic soy agar (TSA) using a 10-fold dilution series. TSA plates were further incubated 24 hours at 37° C. The number of colony forming units (CFU) that grew were counted in order to calculate the number of bacteria that were present per mL in the original MHB solution.

For `NCCCCNCCCN` [spermidine], the “concentration at which active” value (biofilm formation; only active at much higher concentrations) is listed as about 1 mM.

Work on `NCCCCCCNCc1cccc(CNCCCCCCN)c1` [CZ-26] yielded an MIC (P. aeruginosa) of over 100 µM and an MIC (MRSA [1]) of 50 to 100 µM (≈ 16.7 to 33.5 µg/mL).

Compound `NCCCNCCCNCCCNCc1ccccc1` [CZ-16] has an MIC (MRSA [1]) of over 100 µM.

Compound `NCCCCCCNCc1cc(CNCCCCCCN)cc(CNCCCCCCN)c1` [CZ-33] has an MIC (P. aeruginosa) of over 100 µM and an MIC (MRSA [1]) of 50 to 100 µM (≈ 23.1 to 46.3 µg/mL).

In the case of `NCCCNCCCN` [norspermidine, N-(3-aminopropyl)propane-1,3-diamine], the “concentration at which biofilm formation is inhibited” value (biofilm formation) is given as 25 µM.

For `Cc1ccccc1-c1cc(CNCCCNCCCN)cc(CNCCCNCCCN)c1` [CZ-63], the MIC (P. aeruginosa) was under 50 µM and the MIC (MRSA [1]) was under 50 µM.

Compound `CC(C)Oc1ccc(-c2cc(CNCCCNCCCN)cc(CNCCCNCCCN)c2)cc1CNCCCNCCCN` [CZ-66] has an MIC (P. aeruginosa) of under 50 µM and an MIC (MRSA [1]) of under 50 µM.

In the case of `NCCCNCCCNCc1cc(CO)cc(CNCCCNCCCN)c1` [CZ-53], the MIC (P. aeruginosa) is reported as 50 to 100 µM (≈ 19.7 to 39.5 µg/mL) and the MIC (MRSA [1]) is reported as under 50 µM.

Compound `CC(C)(C)OC(=O)NCCCNCCCNCc1cc(CNCCCNCCCN)cc(CNCCCNCCCNC(=O)OC(C)(C)C)c1` [CZ-54] has an MIC (P. aeruginosa) of under 50 µM and an MIC (MRSA [1]) of under 50 µM.

With `NCCCNCCCNCc1cc(CNCCCNCCCN)cc(-c2ccc(OC(F)(F)F)c(CNCCCNCCCN)c2)c1` [CZ-69] the MIC (P. aeruginosa) was under 50 µM and the MIC (MRSA [1]) was under 50 µM.

`NCCCNC(=O)c1cccc(C(=O)NCCCN)c1` [CZ-40] showed an MIC (P. aeruginosa) of over 100 µM.

For `NCCCNCCCNCc1cccc(CO)c1` [CZ-22], the MIC (MRSA [1]) was 50 to 100 µM (≈ 12.6 to 25.1 µg/mL).

Work on `Cc1cc(C)c(CNCCCN)c(C)c1CNCCCN` [CZ-19] yielded an MIC (MRSA [1]) of over 100 µM.

`NCCCNCc1cccc(CNCCCN)c1` [CZ-12] gave an MIC (P. aeruginosa) of over 100 µM.

`NCCCNCCCNCc1cc(CNCCCNCCCN)cc(-c2ccc3c(c2)OCO3)c1` [CZ-61] showed an MIC (P. aeruginosa) of under 50 µM and an MIC (MRSA [1]) of under 50 µM.

`NCCCCNCc1ccccc1` [CZ-3] gave an MIC (MRSA [1]) of over 100 µM.

Work on `NCCCNCCCNCCCNCc1cc(CNCCCNCCCNCCCN)cc(-c2ccccc2)c1` [CZ-73] yielded an MIC (P. aeruginosa) of under 50 µM and an MIC (MRSA [1]) of under 50 µM.

With `NCCCNCCCNCCCNCc1cccc(CNCCCNCCCNCCCN)c1` [CZ-57] the MIC (P. aeruginosa) was over 100 µM and the MIC (MRSA [1]) was under 50 µM.

For `N=C(NCCCCCCNC(=N)NC(=N)Nc1ccc(Cl)cc1)NC(=N)Nc1ccc(Cl)cc1.O=C(O)[C@H](O)[C@@H](O)[C@H](O)[C@H](O)CO.O=C(O)[C@H](O)[C@@H](O)[C@H](O)[C@H](O)CO` [chlorhexidine gluconate], the “biofilm dispersal effect (comparison antimicrobials)” value [2] is given as “not seen”.

With `COc1ccc(-c2cc(CNCCCNCCCN)cc(CNCCCNCCCN)c2)cn1` [CZ-72] the MIC (P. aeruginosa) was under 50 µM and the MIC (MRSA [1]) was under 50 µM.

`CN(C)CCCNCCCNCc1cccc(CNCCCNCCCN(C)C)c1` [CZ-43] gave an MIC (P. aeruginosa) of over 100 µM and an MIC (MRSA [1]) of over 100 µM.

For `O=CCCCC=O` [glutaraldehyde], the “biofilm dispersal effect (comparison antimicrobials)” value [2] is listed as “not seen”.

In the case of `NCCCNCCCNCc1ccc(-c2cc(CNCCCNCCCN)cc(CNCCCNCCCN)c2)cc1` [CZ-65], the MIC (P. aeruginosa) is reported as under 50 µM and the MIC (MRSA [1]) is reported as under 50 µM.

`CN(C)CCCNCCCNCc1ccccc1` [CZ-6] showed an MIC (MRSA [1]) of over 100 µM.

`NCCCNCCCNCc1cc(CNCCCNCCCN)cc(-c2ccncc2)c1` [CZ-71] gave an MIC (P. aeruginosa) of over 100 µM and an MIC (MRSA [1]) of under 50 µM.

`NCCCNCCCNCc1cccc(-c2cc(CNCCCNCCCN)cc(CNCCCNCCCN)c2)c1` [CZ-62] showed an MIC (P. aeruginosa) of under 50 µM and an MIC (MRSA [1]) of under 50 µM.

For `NCCCNCc1cc(CNCCCN)cc(CNCCCN)c1` [CZ-32], the MIC (MRSA [3]) was 45 µg/mL (≈ 134 µM), the MIC (P. aeruginosa) was 50 to 100 µM (≈ 16.8 to 33.7 µg/mL) and the MIC (MRSA [1]) was 50 to 100 µM (≈ 16.8 to 33.7 µg/mL).
